Experimental data from US9518052B2, “Pyrazolopyridines and pyrazolopyrimidines” (Pfizer Inc., priority 2014, dated 2016).
pIC50: −log10 of the molar value.

What was measured:
[1] = tested on: rhIFNγ stimulated STAT-3 phosphorylation in the A549 human epithelial cell line; experiment: A549 Cell Assay: Inhibition of pSTAT3; format: cell-based; conditions: A549 cells
Description: A549 Cell Assay: Inhibition of pSTAT3
An assay measuring the efficacy of JAK inhibitors on the functional response of recombinant human interferon γ (rhIFNγ) stimulated STAT-3 phosphorylation in the A549 human epithelial cell line.
A549 cells (ATCC #CCL-185), were plated at 30,000 cells/well in 96 well flat bottomed tissue culture plates (BD#353072) in 200 μL of growth medium (DMEM, Pfizer media prep, with 10% Fetal Bovine Serum, Sigma #F4135, 2 mM L-Glutamine, Pfizer media prep, 100 U/mL penicillin, Pfizer media prep, and 200 μg/ml streptomycin, Pfizer media prep), and cultured at 37° C., 5% CO2 incubator for 18 hours. Growth medium was removed by vacuum aspiration (V&P Scientific #vp187 bp-60), and 90 μL of pre-warmed assay medium (DMEM with 0.2% BSA, Miltenyi #130-091-376) was added to each well and incubated for 15 minutes at 37° C. 10 μL of vehicle control or test compound (final concentration range of 0.3 nM to 10 μM with 0.1% DMSO) was added to the cells. Plates were incubated at 37° C. for 1 hour. After compound incubation, 10 μL of 220 ng/mL recombinant human IFNγ (R&D Systems #285-IF, final rhIFNγ concentration of 20 ng/mL) was added to the cells and plates were incubated for 30 minutes at 37° C. Wells containing A549 cells, medium with 0.1% DMSO and no rhIFNγ were used as background controls. After rhIFNγ stimulation, media was aspirated from each well and 35 μL/well of iced-cold MSD lysis buffer containing protease and phosphatase inhibitors from Phospho-STAT3 Tyr705 assay kit (Meso-Scale Discovery #K150DID) was added to each well. Plates were incubated at 4° C. with shaking for 30 minutes. Cell lysates were assayed following the MSD Phospho-STAT3 Tyr705 assay kit protocol to detect pSTAT3.
Data were collected and transformed into percent inhibition and calculated using the following formula: […]

JAK1 = JAK1 (Homo sapiens (Human), UniProt P23458); experiment: JAK Caliper Enzyme Assay at 1 mM ATP (JAK1); format: biochemical; conditions: Caliper assay at 1 mM ATP
Chain of JAK1 (P23458 whole entry, species assumed): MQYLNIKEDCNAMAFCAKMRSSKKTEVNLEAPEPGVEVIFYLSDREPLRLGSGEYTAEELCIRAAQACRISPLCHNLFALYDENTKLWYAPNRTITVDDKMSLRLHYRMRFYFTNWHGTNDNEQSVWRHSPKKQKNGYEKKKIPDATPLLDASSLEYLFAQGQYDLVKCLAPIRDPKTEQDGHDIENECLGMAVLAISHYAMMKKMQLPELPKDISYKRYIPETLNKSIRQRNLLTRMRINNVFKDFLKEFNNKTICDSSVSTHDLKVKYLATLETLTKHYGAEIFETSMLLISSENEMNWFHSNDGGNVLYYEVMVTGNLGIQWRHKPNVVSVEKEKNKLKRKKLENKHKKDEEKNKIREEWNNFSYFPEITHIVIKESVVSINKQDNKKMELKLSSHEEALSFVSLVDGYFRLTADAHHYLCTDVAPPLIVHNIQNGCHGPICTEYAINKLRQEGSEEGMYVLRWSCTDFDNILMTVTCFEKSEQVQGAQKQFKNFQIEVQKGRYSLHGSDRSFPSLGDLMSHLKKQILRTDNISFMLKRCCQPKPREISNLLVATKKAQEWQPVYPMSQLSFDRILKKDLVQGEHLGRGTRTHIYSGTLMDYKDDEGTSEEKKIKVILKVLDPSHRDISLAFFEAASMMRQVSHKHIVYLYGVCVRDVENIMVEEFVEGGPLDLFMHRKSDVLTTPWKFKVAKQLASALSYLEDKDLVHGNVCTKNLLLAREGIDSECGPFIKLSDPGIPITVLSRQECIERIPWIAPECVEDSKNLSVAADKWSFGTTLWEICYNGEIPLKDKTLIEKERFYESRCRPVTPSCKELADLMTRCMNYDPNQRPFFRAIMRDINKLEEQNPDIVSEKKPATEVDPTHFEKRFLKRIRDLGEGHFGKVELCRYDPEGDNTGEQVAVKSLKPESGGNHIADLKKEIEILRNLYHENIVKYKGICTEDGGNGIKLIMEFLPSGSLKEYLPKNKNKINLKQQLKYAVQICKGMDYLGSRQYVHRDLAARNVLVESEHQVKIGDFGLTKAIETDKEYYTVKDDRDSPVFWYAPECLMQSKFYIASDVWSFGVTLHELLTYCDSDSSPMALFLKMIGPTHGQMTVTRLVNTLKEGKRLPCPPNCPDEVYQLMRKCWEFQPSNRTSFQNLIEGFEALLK

JAK2 = JAK2 (Homo sapiens (Human), UniProt O60674); experiment: JAK Caliper Enzyme Assay at 1 mM ATP (JAK2); format: biochemical; conditions: Caliper assay at 1 mM ATP
Chain of JAK2 (O60674 whole entry, species assumed): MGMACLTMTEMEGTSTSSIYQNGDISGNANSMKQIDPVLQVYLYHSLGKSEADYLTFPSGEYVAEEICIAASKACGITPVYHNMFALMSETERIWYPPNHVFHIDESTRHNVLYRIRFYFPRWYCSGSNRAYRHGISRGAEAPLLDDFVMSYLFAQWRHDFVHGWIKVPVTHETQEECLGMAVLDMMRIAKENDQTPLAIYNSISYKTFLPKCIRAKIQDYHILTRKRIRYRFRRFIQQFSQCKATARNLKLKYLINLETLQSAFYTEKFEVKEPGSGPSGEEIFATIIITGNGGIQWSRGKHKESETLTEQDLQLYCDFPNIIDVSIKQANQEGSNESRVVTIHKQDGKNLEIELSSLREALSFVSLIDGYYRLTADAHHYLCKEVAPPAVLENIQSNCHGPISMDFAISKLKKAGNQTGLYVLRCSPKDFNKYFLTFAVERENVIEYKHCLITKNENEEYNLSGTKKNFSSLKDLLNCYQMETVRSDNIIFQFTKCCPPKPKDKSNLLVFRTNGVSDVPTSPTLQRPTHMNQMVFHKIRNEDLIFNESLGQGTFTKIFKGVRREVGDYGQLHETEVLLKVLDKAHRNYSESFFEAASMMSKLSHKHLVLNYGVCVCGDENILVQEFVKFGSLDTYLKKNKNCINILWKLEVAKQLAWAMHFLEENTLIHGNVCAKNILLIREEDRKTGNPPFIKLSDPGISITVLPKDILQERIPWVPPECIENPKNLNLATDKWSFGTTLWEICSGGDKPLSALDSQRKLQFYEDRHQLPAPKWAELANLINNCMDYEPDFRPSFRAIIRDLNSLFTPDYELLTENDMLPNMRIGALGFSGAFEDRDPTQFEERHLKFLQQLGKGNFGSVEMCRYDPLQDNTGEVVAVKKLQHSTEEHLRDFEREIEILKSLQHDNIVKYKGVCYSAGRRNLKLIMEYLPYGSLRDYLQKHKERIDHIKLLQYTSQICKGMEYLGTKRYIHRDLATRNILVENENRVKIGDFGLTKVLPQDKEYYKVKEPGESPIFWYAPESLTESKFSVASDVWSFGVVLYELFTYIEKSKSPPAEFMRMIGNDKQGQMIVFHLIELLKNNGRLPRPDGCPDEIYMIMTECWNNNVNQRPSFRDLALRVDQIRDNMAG

JAK3 = JAK3 (Homo sapiens (Human), UniProt P52333); experiment: JAK Caliper Enzyme Assay at 1 mM ATP (JAK3); format: biochemical; conditions: Caliper assay at 1 mM ATP
Chain of JAK3 (P52333 whole entry, species assumed): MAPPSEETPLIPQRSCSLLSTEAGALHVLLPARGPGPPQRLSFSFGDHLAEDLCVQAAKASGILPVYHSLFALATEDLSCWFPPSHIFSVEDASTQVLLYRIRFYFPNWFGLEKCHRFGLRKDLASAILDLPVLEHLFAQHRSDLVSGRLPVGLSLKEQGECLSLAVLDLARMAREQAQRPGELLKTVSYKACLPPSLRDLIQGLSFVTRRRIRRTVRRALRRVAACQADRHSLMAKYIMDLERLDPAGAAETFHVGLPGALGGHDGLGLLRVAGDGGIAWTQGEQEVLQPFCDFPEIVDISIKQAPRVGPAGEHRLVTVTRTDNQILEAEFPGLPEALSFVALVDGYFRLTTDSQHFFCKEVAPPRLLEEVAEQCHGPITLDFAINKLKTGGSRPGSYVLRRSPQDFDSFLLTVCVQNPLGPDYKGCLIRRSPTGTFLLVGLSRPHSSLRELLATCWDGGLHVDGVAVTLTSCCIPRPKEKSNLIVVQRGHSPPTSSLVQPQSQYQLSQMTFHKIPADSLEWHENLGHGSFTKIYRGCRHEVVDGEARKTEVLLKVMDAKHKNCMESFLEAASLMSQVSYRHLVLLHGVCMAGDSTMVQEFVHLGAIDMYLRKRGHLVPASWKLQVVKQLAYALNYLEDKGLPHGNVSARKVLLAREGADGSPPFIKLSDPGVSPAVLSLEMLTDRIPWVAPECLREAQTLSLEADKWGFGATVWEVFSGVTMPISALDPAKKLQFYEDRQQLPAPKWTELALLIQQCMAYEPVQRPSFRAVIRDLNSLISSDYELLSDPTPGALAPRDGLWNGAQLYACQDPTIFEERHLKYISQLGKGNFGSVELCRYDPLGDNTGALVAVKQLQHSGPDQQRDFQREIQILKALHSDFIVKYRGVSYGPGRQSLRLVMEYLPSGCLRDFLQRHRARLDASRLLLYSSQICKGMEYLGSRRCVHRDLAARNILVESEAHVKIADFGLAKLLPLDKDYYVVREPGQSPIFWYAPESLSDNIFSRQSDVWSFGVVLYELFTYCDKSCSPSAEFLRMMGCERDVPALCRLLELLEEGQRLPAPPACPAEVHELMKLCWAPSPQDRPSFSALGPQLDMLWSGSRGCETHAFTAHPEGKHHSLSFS

TYK2 = TYK2 (Homo sapiens (Human), UniProt P29597); experiment: JAK Caliper Enzyme Assay at 1 mM ATP (TYK2); format: biochemical; conditions: Caliper assay at 1 mM ATP
Chain of TYK2 (P29597 whole entry, species assumed): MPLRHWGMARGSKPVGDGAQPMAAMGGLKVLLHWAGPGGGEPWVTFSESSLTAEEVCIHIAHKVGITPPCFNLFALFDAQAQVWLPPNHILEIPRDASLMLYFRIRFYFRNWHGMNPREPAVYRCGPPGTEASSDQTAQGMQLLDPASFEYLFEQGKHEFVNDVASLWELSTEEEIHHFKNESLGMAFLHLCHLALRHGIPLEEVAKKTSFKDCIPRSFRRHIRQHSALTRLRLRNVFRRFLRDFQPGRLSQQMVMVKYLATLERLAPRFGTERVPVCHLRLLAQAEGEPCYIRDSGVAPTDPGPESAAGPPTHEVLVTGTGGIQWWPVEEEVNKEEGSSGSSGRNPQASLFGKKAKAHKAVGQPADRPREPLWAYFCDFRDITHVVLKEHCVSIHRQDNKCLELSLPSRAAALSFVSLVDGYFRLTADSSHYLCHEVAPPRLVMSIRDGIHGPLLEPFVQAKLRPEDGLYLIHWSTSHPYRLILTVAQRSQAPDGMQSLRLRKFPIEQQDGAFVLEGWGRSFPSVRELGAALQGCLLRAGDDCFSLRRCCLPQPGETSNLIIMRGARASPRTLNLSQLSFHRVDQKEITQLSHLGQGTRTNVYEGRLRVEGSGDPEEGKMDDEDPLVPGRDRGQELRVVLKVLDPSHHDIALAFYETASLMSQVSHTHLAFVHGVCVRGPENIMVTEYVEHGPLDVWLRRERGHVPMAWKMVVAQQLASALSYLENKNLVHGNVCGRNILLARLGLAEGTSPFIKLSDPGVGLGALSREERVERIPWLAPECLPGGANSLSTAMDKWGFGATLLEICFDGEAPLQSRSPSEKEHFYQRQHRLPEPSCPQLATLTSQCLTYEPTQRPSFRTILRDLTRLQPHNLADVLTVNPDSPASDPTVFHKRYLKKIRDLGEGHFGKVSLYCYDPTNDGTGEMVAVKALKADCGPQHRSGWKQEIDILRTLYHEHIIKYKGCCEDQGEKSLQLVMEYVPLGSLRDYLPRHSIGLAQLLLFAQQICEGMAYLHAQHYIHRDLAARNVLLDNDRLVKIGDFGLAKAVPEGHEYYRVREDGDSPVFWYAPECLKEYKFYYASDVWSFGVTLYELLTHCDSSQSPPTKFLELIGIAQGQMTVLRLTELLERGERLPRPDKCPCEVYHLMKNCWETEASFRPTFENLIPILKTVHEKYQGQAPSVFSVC

SMILES	pIC50 [1]	pIC50 (JAK1)	pIC50 (JAK2)	pIC50 (JAK3)	pIC50 (TYK2)
CCc1cc(O)c(F)cc1-c1cc2[nH]nc(C(=O)NC)c2c(NCc2ccccc2N(CC)S(C)(=O)=O)n1 [Example 9, 6-(2-ethyl-5-fluoro-4-hydroxyphenyl)-4-({2-[ethyl(methylsulfonyl)ami-no]benzyl}amino)-N-methyl-1H-pyrazolo[4,3-c]pyridine-3-carboxamide]	7.83				
CCc1cc(O)c(F)cc1-c1cc2[nH]nc(C(=O)NC)c2c(NCC2CCCC2)n1 [Example 10, 4-[(cyclopentylmethyl)ami-no]-6-(2-ethyl-5-fluoro-4-hydroxyphenyl)-N-methyl-1H-pyrazolo[4,3-c]pyridine-3-carboxamide]	7.59				
CCN(c1ccccc1CNc1nc(-c2cc(F)c(O)cc2CC(F)(F)F)cc2[nH]nc(C(=O)NC)c12)S(C)(=O)=O [Example 12, 4-({2-[ethyl(methylsulfon-yl)amino]benzyl}ami-no)-6-[5-fluoro-4-hydroxy-2-(2,2,2-trifluoroethyl)phenyl]-N-methyl-1H-pyrazolo[4,3-c]pyridine-3-carboxamide]	7.35				
CCS(=O)(=O)N(C)c1ccccc1CNc1nc(-c2cc(F)c(O)cc2CC(F)(F)F)cc2[nH]nc(C(=O)NC)c12 [Example 13]	7.01				
CNC(=O)c1n[nH]c2cc(-c3cc(F)c(O)cc3CC(F)(F)F)nc(NCc3cc(F)ccc3N(C)S(C)(=O)=O)c12 [Example 14, 6-[5-fluoro-4-hydroxy-2-(2,2,2-trifluoroethyl)phenyl]-4-({5-fluoro-2-[methyl(methylsulfon-yl)amino]benzyl}ami-no)-N-methyl-1H-pyrazolo[4,3-c]pyridine-3-carboxamide]	7.68				
CNC(=O)c1n[nH]c2cc(-c3cc(F)c(O)cc3CC(F)(F)F)nc(NCc3c(F)cccc3N(C)S(C)(=O)=O)c12 [Example 18, 6-[5-fluoro-4-hydroxy-2-(2,2,2-trifluoroethyl)phenyl]-4-({2-fluoro-6-[methyl(meth-ylsulfonyl)amino]benz-yl}amino)-N-methyl-1H-pyrazolo[4,3-c]pyridine-3-carboxamide]	7.01				
CCc1cc(O)c(F)cc1-c1cc2[nH]nc(C(=O)NC)c2c(NCc2cc(C)ccc2N(C)S(C)(=O)=O)n1 [Example 21, 6-(2-ethyl-5-fluoro-4-hydroxyphenyl)-N-methyl-4-({5-methyl-2-[methyl(methylsulfon-yl)amino]benzyl}ami-no)-1H-pyrazolo[4,3-c]pyridine-3-carboxamide]	7.45				
CCc1cc(O)c(F)cc1-c1cc2[nH]nc(C(=O)NC)c2c(NCc2ccccc2N(C)S(=O)(=O)c2ccccc2)n1 [Example 22, 6-(2-ethyl-5-fluoro-4-hydroxyphenyl)-N-methyl-4-({2-[methyl(phen-ylsulfonyl)amino]ben-zyl}amino)-1H-pyrazolo[4,3-c]pyridine-3-carboxamide]	7.28				
CCc1cc(O)c(F)cc1-c1cc2[nH]nc(C(=O)NC)c2c(NCCc2ccc(NS(=O)(=O)c3ccccc3)cc2)n1 [Example 23, 6-(2-ethyl-5-fluoro-4-hydroxyphenyl)-N-methyl-4-[(2-{4-[(phenylsulfonyl)-amino]phenyl}ethyl)ami-no]-1H-pyrazolo[4,3-c]pyridine-3-carboxamide]	7.29				
CNC(=O)c1n[nH]c2cc(-c3cc(F)c(O)cc3CC(F)(F)F)nc(NCc3ccccc3N(CCO)S(C)(=O)=O)c12 [Example 24, 6-[5-fluoro-4-hydroxy-2-(2,2,2-trifluoroethyl)phenyl]-4-({2-[(2-hydroxyethyl)-(methylsulfonyl)ami-no]benzyl}amino)-N-methyl-1H-pyrazolo[4,3-c]pyridine-3-carboxamide]	6.65				
CN(c1ccccc1CNc1nc(-c2cc(F)c(O)cc2CC(F)(F)F)cc2[nH]nc(C(N)=O)c12)S(=O)(=O)c1ccccc1 [Example 26, 6-[5-fluoro-4-hydroxy-2-(2,2,2-trifluoroethyl)phenyl]-4-({2-[methyl(phen-ylsulfonyl)amino]ben-zyl}amino)-1H-pyrazolo[4,3-c]pyridine-3-carboxamide]	6.90				
CS(=O)(=O)N(CCO)c1ccccc1CNc1nc(-c2cc(F)c(O)cc2CC(F)(F)F)cc2[nH]nc(C(N)=O)c12 [Example 27, 6-[5-fluoro-4-hydroxy-2-(2,2,2-trifluoroethyl)phenyl]-4-({2-[(2-hydroxyethyl)(methylsul-fonyl)amino]benzyl}amino)-1H-pyrazolo[4,3-c]pyridine-3-carboxamide]	6.06				
CCc1cc(O)c(F)cc1-c1cc2[nH]nc(-c3ncc[nH]3)c2c(NCc2ccccc2N(C)S(C)(=O)=O)n1 [Example 157, N-[2-({[6-(2-Ethyl-5-fluoro-4-hydroxyphenyl)-3-(1H-imidazol-2-yl)-1H-pyrazolo[4,3-c]pyridin-4-yl]amino}methyl)phenyl]-N-methylmethanesulfonamide]		8.47	7.82	7.12	7.93
CCc1cc(O)c(F)cc1-c1cc2[nH]nc(-c3nc(C)c[nH]3)c2c(NCc2ccccc2N(C)S(C)(=O)=O)n1 [Example 159, N-[2-({[6-(2-Ethyl-5-fluoro-4-hydroxyphenyl)-3-(4-methyl-1H-imidazol-2-yl)-1H-pyrazolo[4,3-c]pyridin-4-yl]amino}methyl)phenyl]-N-methylmethanesulfonamide]		8.37	7.73	7.08	7.79
CCc1cc(O)c(F)cc1-c1cc2[nH]nc(-n3cccn3)c2c(NCc2ccccc2N(C)S(C)(=O)=O)n1 [Example 162, N-[2-({[6-(2-Ethyl-5-fluoro-4-hydroxyphenyl)-3-(1H-pyrazol-1-yl)-1H-pyrazolo[4,3-c]pyridin-4-yl]amino}methyl)phenyl]-N-methylmethanesulfonamide]		8.39	7.63	7.04	7.81
CN(c1ccccc1CNc1nc(-c2cc(F)c(O)cc2CC(F)(F)F)cc2[nH]nc(-n3cccn3)c12)S(C)(=O)=O [Example 163, N-{2-[({6-[5-Fluoro-4-hydroxy-2-(2,2,2-trifluoroethyl)phenyl]-3-(1H-pyrazol-1-yl)-1H-pyrazolo[4,3-c]pyridin-4-yl}amino)methyl]phenyl}-N-methylmethanesulfonamide]		7.48	6.82	6.31	6.45
CCc1cc(O)c(F)cc1-c1cc2[nH]nc(-c3nnc(C)[nH]3)c2c(NCc2ccccc2N(C)S(C)(=O)=O)n1 [Example 165, N-[2-({[6-(2-Ethyl-5-fluoro-4-hydroxyphenyl)-3-(5-methyl-4H-1,2,4-triazol-3-yl)-1H-pyrazolo[4,3-c]pyridin-4-yl]amino}methyl)phenyl]-N-methylmethanesulfonamide]		8.46	7.77	7.11	7.84
CC(CO)CNc1nc(-c2cc(F)c(O)cc2CC(F)(F)F)nc2[nH]nc(-c3nc4c([nH]3)CCN(Cc3ccccc3)C4)c12 (stereo not drawn) [Example 173, 4-(3-(5-Benzyl-4,5,6,7-tetrahydro-1H-imidazo[4,5-c]pyridin-2-yl)-4-((3-hydroxy-2-methylpropyl)amino)-1H-pyrazolo[3,4-d]pyrimidin-6-yl)-2-fluoro-5-(2,2,2-trifluoroethyl)phenol]		8.03	7.30	6.87	6.74
